The IC90 is the point of the concentration-response curve where the effect stands at 90%. A higher IC90 goes with a need for much substance. As usually defined, the Ki is a dissociation constant, usually derived from enzyme kinetics or from competition with a known ligand. Low readings indicate higher affinity, high ones lower affinity. In general, CC50 refers to the concentration giving 50% cytotoxicity.

Molecules are shown by their SMILES. Activity calls are given as the source filed them. The rule behind the calls is not given here.

The subject of series [1] is SARS-CoV-2. Description: IC90 for antiviral activity against SARS-CoV-2 in the Vero E6 cell line by measuring infectious viral titer of supernatent from compound-treated Vero E6 cells by Median Tissue Culture Infectious Dose (TCID)50 by the method of Reed and Muench. Type of series: functional, Chlorocebus sabaeus. The following applies: Severe acute respiratory syndrome coronavirus 2, Vero C1008.

Series [2] has as its system Vero C1008. Nature of the series: AUC (cytotoxicity %) of compound against Vero E6 cells by MTT assay. Type of series: toxicity, cell-based. Particulars: chlorocebus sabaeus. (In general: Tetrazolium dyes change colour on reduction, which living cells bring about.)
The target of series [3] is Sigma intracellular receptor 2 (Homo sapiens, UniProt Q5BJF2). Nature of the series: Displacement of [3H]-DTG from the Sigma2 receptor.
Sigma intracellular receptor 2, sequence (Q5BJF2 whole entry): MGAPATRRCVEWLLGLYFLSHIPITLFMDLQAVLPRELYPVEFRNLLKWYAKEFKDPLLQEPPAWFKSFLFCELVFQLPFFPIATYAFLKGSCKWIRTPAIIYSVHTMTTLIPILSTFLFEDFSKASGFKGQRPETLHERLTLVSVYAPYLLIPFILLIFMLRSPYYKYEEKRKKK
Series [4] addresses Sigma non-opioid intracellular receptor 1 (Homo sapiens, UniProt Q99720).
Description: Displacement of [3H]-pentazocin from the Sigma1 receptor
Series [5] addresses T1, Alpha-2A adrenergic receptor (Homo sapiens, UniProt P08913).
T1 sequence (P08913 whole entry): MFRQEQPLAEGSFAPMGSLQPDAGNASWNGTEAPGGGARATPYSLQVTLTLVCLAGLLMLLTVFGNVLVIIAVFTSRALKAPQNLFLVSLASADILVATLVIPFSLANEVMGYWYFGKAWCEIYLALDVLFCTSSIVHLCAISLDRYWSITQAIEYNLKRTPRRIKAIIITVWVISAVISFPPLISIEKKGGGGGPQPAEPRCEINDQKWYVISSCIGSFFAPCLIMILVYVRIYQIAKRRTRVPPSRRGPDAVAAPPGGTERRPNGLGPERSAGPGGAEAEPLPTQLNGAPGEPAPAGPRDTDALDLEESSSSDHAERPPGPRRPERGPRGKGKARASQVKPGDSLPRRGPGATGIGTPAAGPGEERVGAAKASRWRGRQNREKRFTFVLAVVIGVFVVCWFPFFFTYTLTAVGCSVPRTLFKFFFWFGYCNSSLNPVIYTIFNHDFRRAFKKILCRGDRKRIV
Nature of the series: Activity of compound against Alpha-2A (ADRA2A) adrenergic receptor by displacement of [3H]-rauwolscine. Background: Loss of bound radioactivity is the signal in a displacement assay; it reports binding, not function.

Series [6] addresses T2, Muscarinic acetylcholine receptor M2 (Homo sapiens, UniProt P08172).
T2 sequence (P08172 whole entry): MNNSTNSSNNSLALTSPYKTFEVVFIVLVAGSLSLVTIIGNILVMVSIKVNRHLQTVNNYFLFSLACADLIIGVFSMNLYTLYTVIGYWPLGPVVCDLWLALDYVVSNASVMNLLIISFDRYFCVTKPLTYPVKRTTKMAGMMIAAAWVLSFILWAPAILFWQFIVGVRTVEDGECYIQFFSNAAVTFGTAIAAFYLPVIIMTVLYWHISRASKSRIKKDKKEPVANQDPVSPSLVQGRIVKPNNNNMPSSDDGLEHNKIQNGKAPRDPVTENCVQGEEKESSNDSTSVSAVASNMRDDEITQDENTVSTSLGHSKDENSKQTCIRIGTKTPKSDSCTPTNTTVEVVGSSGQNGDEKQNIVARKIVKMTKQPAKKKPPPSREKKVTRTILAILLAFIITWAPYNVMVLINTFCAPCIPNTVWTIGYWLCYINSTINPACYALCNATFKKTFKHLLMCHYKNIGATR
Nature of the series: Activity of compound against Muscarinic acetylcholine receptor M2 (CHRM2) by displacement of 3H-QNB.

Series [7] has as its target T3, Muscarinic acetylcholine receptor M4 (Homo sapiens, UniProt P08173).
T3 sequence (P08173 whole entry): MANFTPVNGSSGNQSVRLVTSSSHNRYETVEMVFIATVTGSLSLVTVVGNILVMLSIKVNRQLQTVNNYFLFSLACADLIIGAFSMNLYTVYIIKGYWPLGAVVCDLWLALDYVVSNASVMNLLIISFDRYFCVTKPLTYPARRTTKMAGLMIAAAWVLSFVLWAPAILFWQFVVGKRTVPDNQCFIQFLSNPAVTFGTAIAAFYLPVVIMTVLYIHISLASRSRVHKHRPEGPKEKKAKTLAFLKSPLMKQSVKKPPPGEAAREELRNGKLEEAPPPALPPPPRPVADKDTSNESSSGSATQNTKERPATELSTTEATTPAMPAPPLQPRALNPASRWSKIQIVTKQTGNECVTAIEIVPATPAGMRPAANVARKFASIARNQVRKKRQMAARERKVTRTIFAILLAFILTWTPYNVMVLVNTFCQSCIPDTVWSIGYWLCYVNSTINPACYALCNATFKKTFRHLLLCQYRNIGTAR
Description: Activity of compound against Muscarinic acetylcholine receptor M4 (CHRM4) by displacement of 3H-QNB.

For series [8], the target named is T4, Muscarinic acetylcholine receptor M5 (Homo sapiens, UniProt P08912).
T4 sequence (P08912 whole entry): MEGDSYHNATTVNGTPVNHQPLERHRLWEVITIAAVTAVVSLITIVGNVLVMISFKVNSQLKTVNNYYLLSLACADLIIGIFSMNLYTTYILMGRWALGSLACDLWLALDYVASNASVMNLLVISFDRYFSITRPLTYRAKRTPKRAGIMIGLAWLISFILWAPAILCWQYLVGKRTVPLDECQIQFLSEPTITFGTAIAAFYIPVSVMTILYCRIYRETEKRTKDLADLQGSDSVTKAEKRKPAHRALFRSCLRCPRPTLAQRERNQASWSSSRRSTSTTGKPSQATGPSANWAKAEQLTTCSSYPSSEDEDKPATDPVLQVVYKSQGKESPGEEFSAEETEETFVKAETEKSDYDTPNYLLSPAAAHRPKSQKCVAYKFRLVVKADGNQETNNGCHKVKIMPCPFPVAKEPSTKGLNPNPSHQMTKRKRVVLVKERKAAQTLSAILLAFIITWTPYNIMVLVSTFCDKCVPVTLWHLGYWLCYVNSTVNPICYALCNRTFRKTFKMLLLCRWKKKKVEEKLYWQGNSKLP
Description: Activity of compound against Muscarinic acetylcholine receptor M5 (CHRM5) by displacement of 3H-QNB.

Series [9] concerns the target Voltage-gated inwardly rectifying potassium channel KCNH2 (Homo sapiens, UniProt Q12809).
Description: hERG binding assays: Displacement of [3H]-Dofetilide (5 nM final) from hERG membranes obtained from HEK293 cells
Series [10] relates to SARS-CoV-2. Particulars: Chlorocebus sabaeus; Vero C1008.
Series [11] is described as follows: (§1) Cytotoxicity of compound against Vero E6 cells by MTT assay. The following applies: chlorocebus sabaeus, Vero E6 cells.
Another series in a line: in vitro. Particulars: monkey, Vero E6 cells.
The subject of series [12] is Vero C1008. Described as §1. The following applies: chlorocebus sabaeus, vero c1008.
In series [13] the test system is SARS-CoV-2. Particulars: Chlorocebus sabaeus; Vero C1008. This is another data set of the same source.

Sigma non-opioid intracellular receptor 1, sequence (Q99720 whole entry): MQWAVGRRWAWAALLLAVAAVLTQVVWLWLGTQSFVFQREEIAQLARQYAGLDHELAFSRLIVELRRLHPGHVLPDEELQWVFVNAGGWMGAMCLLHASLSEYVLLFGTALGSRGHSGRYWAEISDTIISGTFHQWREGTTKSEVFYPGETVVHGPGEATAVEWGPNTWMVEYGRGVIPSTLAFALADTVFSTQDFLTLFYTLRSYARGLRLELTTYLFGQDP
Voltage-gated inwardly rectifying potassium channel KCNH2, sequence (Q12809 whole entry): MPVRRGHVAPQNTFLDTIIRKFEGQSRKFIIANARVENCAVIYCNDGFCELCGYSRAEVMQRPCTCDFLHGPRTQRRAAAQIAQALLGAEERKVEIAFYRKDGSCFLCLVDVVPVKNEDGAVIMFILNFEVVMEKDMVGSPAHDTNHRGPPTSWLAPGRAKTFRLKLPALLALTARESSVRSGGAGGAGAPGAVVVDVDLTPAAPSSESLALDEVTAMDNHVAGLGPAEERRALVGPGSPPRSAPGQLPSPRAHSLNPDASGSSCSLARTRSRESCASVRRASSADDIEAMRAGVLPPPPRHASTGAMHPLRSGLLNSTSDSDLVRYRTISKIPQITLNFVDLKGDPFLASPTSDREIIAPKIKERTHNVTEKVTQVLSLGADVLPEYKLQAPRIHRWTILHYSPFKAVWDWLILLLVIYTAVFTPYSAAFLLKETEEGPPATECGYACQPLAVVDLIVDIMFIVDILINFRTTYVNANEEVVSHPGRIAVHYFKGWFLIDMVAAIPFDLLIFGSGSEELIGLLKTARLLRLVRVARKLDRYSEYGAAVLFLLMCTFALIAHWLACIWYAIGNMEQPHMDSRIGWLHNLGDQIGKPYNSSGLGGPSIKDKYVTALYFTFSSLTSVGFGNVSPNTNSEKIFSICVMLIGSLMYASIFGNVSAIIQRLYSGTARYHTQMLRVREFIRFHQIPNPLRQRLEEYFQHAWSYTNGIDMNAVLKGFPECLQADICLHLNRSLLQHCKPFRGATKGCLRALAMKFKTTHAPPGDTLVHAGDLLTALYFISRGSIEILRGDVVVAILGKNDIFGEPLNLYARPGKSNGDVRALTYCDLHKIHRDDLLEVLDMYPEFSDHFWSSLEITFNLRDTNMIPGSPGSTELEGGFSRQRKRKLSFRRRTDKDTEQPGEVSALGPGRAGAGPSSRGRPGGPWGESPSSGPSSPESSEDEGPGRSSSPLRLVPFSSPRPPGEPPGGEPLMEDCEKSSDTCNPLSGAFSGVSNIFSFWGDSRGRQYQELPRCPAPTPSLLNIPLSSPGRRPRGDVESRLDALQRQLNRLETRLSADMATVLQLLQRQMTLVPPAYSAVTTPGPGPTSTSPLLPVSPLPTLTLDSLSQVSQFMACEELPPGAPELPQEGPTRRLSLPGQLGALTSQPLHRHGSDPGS

For `COc1cccc2c1CCCC2CCCN1CCN(C2CCCCC2)CC1` (stereo not given), the IC90 with SARS-CoV-2 [1] amounted to 0.278 µM.

For `CCN(CCO)CCCC(C)Nc1ccnc2cc(Cl)ccc12` (stereo not given) [HYDROXYCHLOROQUINE], in the series on Vero C1008 [2], the AUC cytotoxicity is given as 234.6. The Ki in series [3] is 1 µM; in [4] it was 0.126 µM; in [5], 6.46 µM; in [6] it was 5.13 µM; in [7] it was 5.5 µM; in series [8], 20 µM. Moreover, the affinity in series [9] corresponds to a Ki of 2.51 µM. In the series on SARS-CoV-2 [1], this molecule came in with a concentration for an effect of 90% (IC90) of 5.78 µM. Further, in the series on SARS-CoV-2 [10], the AUC was 140.

Turning to `COc1cc2c(c(OC)n1)[C@]1(O)[C@H](O)[C@H](CN(C)C)[C@@H](c3ccccc3)[C@]1(c1ccc(C#N)cc1)O2` [ZOTATIFIN], the CC50 in series [11] is 0.00512 µM (active). The 90% effect level in the series on SARS-CoV-2 [1] (IC90) was put at 0.037 µM.

On to `CN(C)C(=N)N=C(N)N` [METFORMIN], for which the 50% cytotoxic concentration (CC50) in [11] is roughly 33.6 µM. This molecule displayed an AUC cytotoxicity in the series on Vero C1008 [2] of 305.4. Further, the selectivity ratio in “in vitro” was found to be 1.04.

In the case of `CCN(CC)CCCC(C)Nc1ccnc2cc(Cl)ccc12` (stereo not given) [CHLOROQUINE], the Ki is 0.501 µM in [3], 0.0794 µM in series [4], 5.75 µM in [7] and 21.9 µM in series [8].

Turning to `N=C(N)c1ccc2cc(OC(=O)c3ccc(N=C(N)N)cc3)ccc2c1` [NAFAMOSTAT], in the series with Vero C1008 [12], the pCC50 is reported as ~ 2.44. In the series with Vero C1008 [2], this molecule returned an AUC cytotoxicity of 279.9. For the same molecule, in “in vitro”, the selectivity ratio was 0.926 (inactive).

`CCOC(=O)N1CCC(=C2c3ccc(Cl)cc3CCc3cccnc32)CC1` [LORATADINE]: in the series with Vero C1008 [12], the pCC50 result is “Linear Fit”. The pIC50 result in the series with SARS-CoV-2 [13] was “Linear Fit; INACTIVE”.

The values are drawn from ChEMBL document CHEMBL4303773 (Nature, 2020).
